Test results taken from PubChem BioAssay (NCI).
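Tested at 5 concentrations; 48 h exposure; 96-well plates; endpoints linearly interpolated, else capped at highest concentration. At the GI50, growth is halved. At the TGI there is no net growth.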

What was measured:
Test in all cases: inhibition of tumour cell growth, NCI panel, 48 h
RXF 393 renal = system: RXF 393 renal
NCI-H226 lung = system: NCI-H226 lung
CCRF-CEM leukemia = system: CCRF-CEM leukemia
MALME-3M melanoma = system: MALME-3M melanoma
SF-295 CNS = system: SF-295 CNS
OVCAR-8 ovarian = system: OVCAR-8 ovarian
SK-MEL-2 melanoma = system: SK-MEL-2 melanoma
HL-60(TB) leukemia = system: HL-60(TB) leukemia
ACHN renal = system: ACHN renal
NCI-H522 lung = system: NCI-H522 lung

Row | Compound | GI50 (RXF 393 renal) | TGI (RXF 393 renal) | GI50 (NCI-H226 lung) | TGI (NCI-H226 lung) | GI50 (CCRF-CEM leukemia) | TGI (CCRF-CEM leukemia) | GI50 (MALME-3M melanoma) | TGI (MALME-3M melanoma) | GI50 (SF-295 CNS) | TGI (SF-295 CNS) | GI50 (OVCAR-8 ovarian) | TGI (OVCAR-8 ovarian) | GI50 (SK-MEL-2 melanoma) | TGI (SK-MEL-2 melanoma) | GI50 (HL-60(TB) leukemia) | TGI (HL-60(TB) leukemia) | GI50 (ACHN renal) | TGI (ACHN renal) | GI50 (NCI-H522 lung) | TGI (NCI-H522 lung)
1 | C[C@]12CC[C@@H]3c4ccc(O)cc4CC[C@H]3[C@@H]1CC[C@@H]2NS(=O)(=O)c1cccc(C(F)(F)F)c1 | 2.58 µM | 6.65 µM | 3.88 µM | 17.2 µM | 3.46 µM | 24.1 µM | 2.83 µM | 8.65 µM | 1.86 µM | 3.63 µM | 4.65 µM | 19.3 µM | 3.7 µM | 13 µM | 3.54 µM | 15.5 µM | 3.2 µM | 11.4 µM | – | –
2 | O=C(CCCCCCSc1nc(-c2ccccc2)cc(-c2ccccc2)n1)NO | 1.72 µM | 4.42 µM | 2.94 µM | 13.2 µM | 0.535 µM | 5.36 µM | 1.02 µM | 8.31 µM | 2.18 µM | 5.78 µM | 1.79 µM | 16.9 µM | 3.94 µM | 21 µM | – | – | 1.45 µM | 3.16 µM | 1.07 µM | 7.72 µM
3 | COc1ccc(-c2cc(-c3ccccc3)nc(N3CCN(CCNc4ccnc5cc(Cl)ccc45)CC3)n2)cc1 | 0.842 µM | 2.27 µM | 4.14 µM | 25.1 µM | 2.19 µM | > 100 µM | 1.61 µM | 3.14 µM | 16.6 µM | 33 µM | – | – | 6.78 µM | 20.8 µM | – | – | 3.8 µM | 14.4 µM | – | –
4 | CN(CC(=O)O)c1ccc(/C=C/c2ccnc3ccccc23)cc1 | – | 49.8 µM | – | – | – | 72.5 µM | – | – | – | 54.5 µM | – | > 100 µM | – | 44.6 µM | – | 48.2 µM | – | > 100 µM | – | 26.5 µM
5 | O=C(O)C12C3C4C1C1C2C3C1(Br)C41OCCO1 (stereo not given) | – | > 100 µM | – | – | – | > 100 µM | – | > 100 µM | – | > 100 µM | – | > 100 µM | – | > 100 µM | – | > 100 µM | – | > 100 µM | – | > 100 µM
6 | COc1ccc(C2=NN(C(=O)COc3ccc(Cl)cc3)C(O)(c3ccc(Cl)cc3)C2)cc1 (stereo not given) | – | – | – | > 100 µM | – | – | – | > 100 µM | – | > 100 µM | – | > 100 µM | – | > 100 µM | – | > 100 µM | – | > 100 µM | – | > 100 µM
7 | N#Cc1cccc(C(=O)Nc2cccc(NC(=O)c3cccc(C#N)c3)c2)c1 | – | – | 49.1 µM | > 100 µM | – | – | – | – | > 100 µM | > 100 µM | 47.3 µM | > 100 µM | > 100 µM | > 100 µM | – | – | > 100 µM | > 100 µM | > 100 µM | > 100 µM
8 | CC(C)C[C@H](NC(=O)[C@H]1O[C@@H]1C(=O)O)C(=O)NCCc1ccc(O)cc1 | > 100 µM | > 100 µM | > 100 µM | > 100 µM | > 100 µM | > 100 µM | > 100 µM | > 100 µM | > 100 µM | > 100 µM | > 100 µM | > 100 µM | > 100 µM | > 100 µM | – | – | > 100 µM | > 100 µM | > 100 µM | > 100 µM
9 | CCCCCCC#Cc1ccccc1C#CCO | 16.6 µM | 32.9 µM | – | – | – | – | – | – | 16.2 µM | 30.2 µM | 21.7 µM | 46.8 µM | 18.9 µM | 39.8 µM | 38.7 µM | > 100 µM | 18.5 µM | 39 µM | 18.7 µM | 38.6 µM
10 | O/N=C/c1cc2c(cc1Br)OCO2 | – | – | – | > 100 µM | – | > 100 µM | – | > 100 µM | – | > 100 µM | – | > 100 µM | – | > 100 µM | – | > 100 µM | – | > 100 µM | – | > 100 µM
11 | COc1ccc(-c2cnnn2-c2cc(OC)c3c(c2)OCO3)cc1 | – | – | 5.71 µM | > 100 µM | 0.148 µM | > 100 µM | – | – | 0.0585 µM | > 100 µM | 0.304 µM | > 100 µM | 0.0955 µM | 90.4 µM | 0.0761 µM | 2.72 µM | 0.891 µM | > 100 µM | 0.0354 µM | 0.525 µM
12 | CC(=O)Nc1ccc(/C=N\N2C(=O)c3ccccc3C2=O)cc1 | – | > 100 µM | – | > 100 µM | – | > 100 µM | – | > 100 µM | – | > 100 µM | – | > 100 µM | – | > 100 µM | – | > 100 µM | – | > 100 µM | – | –
13 | Cc1ccc(/C=C2/SC(Nc3nc(-c4nc(NC5=NC(=O)/C(=C\c6ccc(C)cc6)S5)sc4C)c(C)s3)=NC2=O)cc1 | 0.282 µM | 3.65 µM | 2.32 µM | > 30.4 µM | 2.44 µM | > 50 µM | – | – | – | 0.874 µM | 1.66 µM | > 31.6 µM | 36.3 µM | > 50 µM | 0.368 µM | > 50 µM | 0.559 µM | > 29.6 µM | 0.857 µM | 25.9 µM
